PubChem BioAssay AID296 (DTP/NCI, 2004)
Values joined by “and” are separate entries in the source; they are usually repeats but may differ in a detail not shown here. Equal values may be shown once. Inconclusive results are not listed.

System: MX-1 breast xenograft, nude mice, tumor weight T/C
Test: NCI In Vivo Anticancer Drug Screen. Data for tumor model Human Mammary Carcinoma MX-1 Xenograft (intrarenal inoculation) in NU/NU Swiss (nude) mice
Settings: endpoint: mean tumor weight change, higher = larger tumour
Method in brief: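 Compound dosed to mice with transplantable tumor; vehicle group as control. Endpoint survival or tumour size, reported as T/C.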

[1] = dose: 150.0 mg/kg/injection, schedule: Q04DX003 (sc), vehicle: saline with Tween-80
[2] = dose: 300.0 mg/kg/injection, schedule: Q04DX003 (sc), vehicle: saline with Tween-80
[3] = dose: 300.0 mg/kg/injection, schedule: Q04DX003 (sc), vehicle: Klucel (hydroxypropylcellulose) (HPC)
[4] = dose: 200.0 mg/kg/injection, schedule: Q01DX010 (sc), vehicle: saline
[5] = dose: 800.0 mg/kg/injection, schedule: Q01DX010 (sc), vehicle: Klucel (hydroxypropylcellulose) (HPC)
[6] = dose: 25.0 mg/kg/injection, schedule: Q04DX003 (sc), vehicle: other

CN(C)CCN1C(=O)c2cccc3cc([N+](=O)[O-])cc(c23)C1=O
T/C (dose: 9.0 mg/kg/injection, schedule: Q04DX003 (sc), vehicle: saline with Tween-80): 52 % of control
T/C (dose: 18.0 mg/kg/injection, schedule: Q04DX003 (sc), vehicle: saline with Tween-80): 43 % of control
T/C (dose: 36.0 mg/kg/injection, schedule: Q04DX003 (sc), vehicle: saline with Tween-80): 55 % of control

CCOC(=O)Nc1cc2c(c(N)n1)N=C(c1ccc(Cl)cc1Cl)CN2
T/C (dose: 37.5 mg/kg/injection, schedule: Q04DX003 (sc), vehicle: saline with Tween-80): 79 % of control
T/C (dose: 75.0 mg/kg/injection, schedule: Q04DX003 (sc), vehicle: saline with Tween-80): 94 % of control
T/C [1]: 103 % of control and 117 % of control
T/C [2]: 81 % of control and 84 % of control

COc1cc(OC)c(OC)cc1/C=C\c1ccnc2ccccc12
T/C [3]: 85 % of control
T/C (dose: 600.0 mg/kg/injection, schedule: Q04DX003 (sc), vehicle: Klucel (hydroxypropylcellulose) (HPC)): 110 % of control
T/C (dose: 1200.0 mg/kg/injection, schedule: Q04DX003 (sc), vehicle: Klucel (hydroxypropylcellulose) (HPC)): 99 % of control

OCC1(CO)COC2(CCCCC2)N1
T/C (dose: 50.0 mg/kg/injection, schedule: Q01DX010 (sc), vehicle: saline): 107 % of control
T/C [4]: 75 % of control
T/C (dose: 200.0 mg/kg/injection, schedule: Q01DX010 (sc), vehicle: suspension in saline): 83 % of control
T/C (dose: 400.0 mg/kg/injection, schedule: Q01DX010 (sc), vehicle: suspension in saline): 56 % of control
T/C (dose: 800.0 mg/kg/injection, schedule: Q01DX010 (sc), vehicle: suspension in saline): 63 % of control
T/C (dose: 1600.0 mg/kg/injection, schedule: Q01DX010 (sc), vehicle: suspension in saline): 105 % of control

CCN1/C(=C/C=C/C=C/c2sc3ccccc3[n+]2CC)Sc2ccccc21
T/C (dose: 1.5 mg/kg/injection, schedule: Q04DX003 (sc), vehicle: suspension in saline): 56 % of control
T/C (dose: 3.0 mg/kg/injection, schedule: Q04DX003 (sc), vehicle: suspension in saline): 35 % of control
T/C (dose: 6.0 mg/kg/injection, schedule: Q04DX003 (sc), vehicle: suspension in saline): 71 % of control

CN(C)[C@@H]1C(=O)C(C(=O)NCN2CCN(C(=N)N=C(N)N)CC2)=C(O)[C@@]2(O)C(=O)C3=C(O)c4c(O)cccc4[C@@](C)(O)[C@H]3C[C@@H]12
T/C (dose: 2.5 mg/kg/injection, schedule: Q04DX003 (ip), vehicle: suspension in saline): 100 % of control
T/C (dose: 5.0 mg/kg/injection, schedule: Q04DX003 (ip), vehicle: suspension in saline): 28 % of control

CCCC(=O)OCc1cc(=O)n(C)c2c3c4c(cc12)c(C)cc(=O)n4CO3
T/C (dose: 12.5 mg/kg/injection, schedule: Q01DX010 (sc), vehicle: Klucel (hydroxypropylcellulose) (HPC)): 170 % of control
T/C (dose: 25.0 mg/kg/injection, schedule: Q01DX010 (sc), vehicle: Klucel (hydroxypropylcellulose) (HPC)): 67 % of control
T/C (dose: 50.0 mg/kg/injection, schedule: Q01DX010 (sc), vehicle: Klucel (hydroxypropylcellulose) (HPC)): 20 % of control
T/C (dose: 100.0 mg/kg/injection, schedule: Q01DX010 (sc), vehicle: Klucel (hydroxypropylcellulose) (HPC)): 15 % of control
T/C (dose: 200.0 mg/kg/injection, schedule: Q01DX010 (sc), vehicle: Klucel (hydroxypropylcellulose) (HPC)): 87 % of control
T/C (dose: 400.0 mg/kg/injection, schedule: Q01DX010 (sc), vehicle: Klucel (hydroxypropylcellulose) (HPC)): 91 % of control
T/C [5]: 72 % of control

CN1CCc2c(c3ccccc3c3ccccc23)C1
T/C (dose: 150.0 mg/kg/injection, schedule: Q04DX003 (sc), vehicle: Klucel (hydroxypropylcellulose) (HPC)): 30 % of control
T/C [3]: 45 % of control

O=C1N=C(Oc2ccccc2)SC1=O
T/C (dose: 400.0 mg/kg/injection, schedule: Q04DX003 (sc), vehicle: saline with Tween-80): 67 % of control

CS(=O)(=O)Nc1ccc(C(=O)CCN2CCCCCC2)cc1
T/C [1]: 101 % of control
T/C [2]: 70 % of control

O=C(c1cccnc1)c1cc(-c2ccccn2)c(=O)n2ccccc12
T/C [2]: 66 % of control
T/C (dose: 600.0 mg/kg/injection, schedule: Q04DX003 (sc), vehicle: saline with Tween-80): 103 % of control
T/C (dose: 1200.0 mg/kg/injection, schedule: Q04DX003 (sc), vehicle: saline with Tween-80): 81 % of control
T/C (dose: 2400.0 mg/kg/injection, schedule: Q04DX003 (sc), vehicle: saline with Tween-80): 120 % of control

CCC(=O)N(C)[C@@H](C)C(=O)O[C@H]1CC(=O)N(C)c2cc(cc(OC)c2Cl)C/C(C)=C/C=C[C@@H](OC)[C@@]2(O)C[C@H](OC(=O)N2)[C@@H](C)[C@@H]2O[C@@]12C
T/C (dose: 0.07 mg/kg/injection, schedule: Q04DX003 (sc), vehicle: saline + alcohol): 117 % of control
T/C (dose: 0.13 mg/kg/injection, schedule: Q04DX003 (sc), vehicle: saline + alcohol): 98 % of control
T/C (dose: 0.25 mg/kg/injection, schedule: Q04DX003 (sc), vehicle: saline + alcohol): 88 % of control
T/C (dose: 0.5 mg/kg/injection, schedule: Q04DX003 (sc), vehicle: saline + alcohol): 7 % of control

Nc1ncn(C2CC(O)C(CO)O2)c(=O)n1 (stereo unspecified)
T/C (dose: 0.2 mg/kg/injection, schedule: Q01DX010 (sc), vehicle: saline): 114 % of control

COC(=O)NC1C(C)OC(OC2C/C=C(/C)C3C=CC4C(OC5CC(OC6CCC(OC7CC(O)C(OC8CCC(O)C(C)O8)C(C)O7)C(C)O6)C(OC(C)=O)C(C)O5)C(C)CC(C)C4C3(C)/C(O)=C3/C(=O)OC4(CC(C=O)=CC(O)C4/C=C\2C)C3=O)CC1(C)[N+](=O)[O-] (stereo unspecified)
T/C [6]: 95 % of control
T/C (dose: 50.0 mg/kg/injection, schedule: Q04DX003 (sc), vehicle: other): 71 % of control

OC(CBr)C(O)C(O)C(O)CBr (stereo unspecified)
T/C (dose: 15.0 mg/kg/injection, schedule: Q01DX010 (sc), vehicle: Klucel (hydroxypropylcellulose) (HPC)): 39 % of control and 42 % of control
T/C [5]: -100 % of control
T/C (dose: 1600.0 mg/kg/injection, schedule: Q01DX010 (sc), vehicle: Klucel (hydroxypropylcellulose) (HPC)): -87 % of control

CSc1ccc2c(c1)C(N1CCN(C)CC1)Cc1ccccc1S2 (stereo unspecified)
T/C (dose: 12.5 mg/kg/injection, schedule: Q04DX003 (sc), vehicle: other): 50 % of control
T/C [6]: 23 % of control
T/C (dose: 100.0 mg/kg/injection, schedule: Q04DX003 (sc), vehicle: other): 42 % of control

O=C[C@@H](CO)O[C@H](C=O)c1c[nH]c(=O)[nH]c1=O
T/C (dose: 18.75 mg/kg/injection, schedule: Q04DX003 (ip), vehicle: saline): 91 % of control
T/C (dose: 37.5 mg/kg/injection, schedule: Q04DX003 (ip), vehicle: saline): 59 % of control
T/C (dose: 75.0 mg/kg/injection, schedule: Q04DX003 (ip), vehicle: saline): 35 % of control

O=P1(NCCCl)OCCCN1CCCl (stereo unspecified)
T/C (dose: 150.0 mg/kg/injection, schedule: Q04DX003 (sc), vehicle: saline): -95 % of control and -100 % of control
T/C (dose: 300.0 mg/kg/injection, schedule: Q04DX003 (sc), vehicle: saline): -100 % of control

NC(=O)c1ccc[n+](Cc2c(Cl)cccc2Cl)c1
T/C (dose: 50.0 mg/kg/injection, schedule: Q04DX003 (sc), vehicle: saline): 92 % of control
T/C (dose: 100.0 mg/kg/injection, schedule: Q04DX003 (sc), vehicle: saline): 100 % of control

COc1ccc2c(NCCCCCCCCNc3c4ccccc4nc4cc(OC)ccc34)c3ccccc3nc2c1
T/C (dose: 8.0 mg/kg/injection, schedule: Q04DX003 (sc), vehicle: suspension in saline): 68 % of control
T/C (dose: 16.0 mg/kg/injection, schedule: Q04DX003 (sc), vehicle: suspension in saline): 78 % of control
T/C (dose: 32.0 mg/kg/injection, schedule: Q04DX003 (sc), vehicle: suspension in saline): 104 % of control
T/C (dose: 64.0 mg/kg/injection, schedule: Q04DX003 (sc), vehicle: suspension in saline): 92 % of control

O=C(O)c1cc(C(=O)O)c(C(=O)O)cc1C(=O)O.[NH2-].[NH2-].[NH2-].[NH2-].[Pt+2].[Pt+2]
T/C (dose: 1.25 mg/kg/injection, schedule: Q04DX003 (ip), vehicle: water): 113 % of control
T/C (dose: 5.0 mg/kg/injection, schedule: Q04DX003 (ip), vehicle: water): 97 % of control
T/C (dose: 10.0 mg/kg/injection, schedule: Q04DX003 (ip), vehicle: water): 60 % of control and 76 % of control
T/C (dose: 20.0 mg/kg/injection, schedule: Q04DX003 (ip), vehicle: water): 66 % of control
T/C (dose: 40.0 mg/kg/injection, schedule: Q04DX003 (ip), vehicle: water): 26 % of control
T/C (dose: 80.0 mg/kg/injection, schedule: Q04DX003 (ip), vehicle: water): 15 % of control

Cc1cc2nc3[nH]c4ccccc4c3nc2cc1C
T/C (dose: 100.0 mg/kg/injection, schedule: Q01DX010 (sc), vehicle: saline): 92 % of control
T/C [4]: 103 % of control
T/C (dose: 400.0 mg/kg/injection, schedule: Q01DX010 (sc), vehicle: saline): 63 % of control
T/C (dose: 800.0 mg/kg/injection, schedule: Q01DX010 (sc), vehicle: saline): 69 % of control
